The values below come from PubChem BioAssay (NCI).

Broadly, the GI50 is the concentration at which growth is held to half of that of the control. One may read the TGI as the concentration giving total growth inhibition. Read a high TGI as lower sensitivity of the cells.

Some test systems named below: TK-10 renal; SF-295 CNS; HS 578T breast; K-562 leukemia; MOLT-4 leukemia; SK-MEL-2 melanoma; SF-539 CNS; SW-620 colon; NCI-H522 lung; IGROV1 ovarian.
Experiment in all cases: DTP human tumour cell line panel, 48 h

Several values for one entry are separate records, joined by “and”; a condition that tells them apart may be missing. Identical values can stand only once.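 Step 1: Grow cells in 96-well plates. Step 2: Expose to compound for 48 hours at 5 concentrations. Step 3: Interpolate endpoints linearly; if unreached, use highest concentration. GI50 is the concentration that inhibits growth by half. Definition used: TGI = concentration required for complete inhibition of growth.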

In the case of `COc1cc2c3c(n(CCCN)c(=O)c2cc1OC)-c1ccc([N+](=O)[O-])cc1C3=O`, the GI50 with TK-10 renal is 20.7 µM; in the experiment on SF-295 CNS it was 0.912 µM; in the experiment with HS 578T breast, 22.5 µM; with K-562 leukemia it was 5.57 µM; in the experiment on MOLT-4 leukemia, 0.434 µM; in the experiment with SK-MEL-2 melanoma, 0.0173 µM. Further, the results for the GI50 in the experiment with SF-539 CNS, with SW-620 colon and in the experiment on NCI-H522 lung were 3.76 µM, 2.12 µM and 0.489 µM, respectively. Moreover, the TGI with TK-10 renal is 41.4 µM; in the experiment with SF-295 CNS it was 17.9 µM; in the experiment with HS 578T breast it was 46.1 µM; in the experiment on K-562 leukemia, 31.3 µM; in the experiment with MOLT-4 leukemia, 16.2 µM; in the experiment on SK-MEL-2 melanoma, 5.19 µM. The concentration for total growth inhibition (TGI) was determined as 14.9 µM with SF-539 CNS, 19.1 µM with SW-620 colon and 10.8 µM in the experiment on NCI-H522 lung.

On to `O=c1c2c([nH]c3nccn13)CCC2`, for which the TGI in the experiment with TK-10 renal, in the experiment with IGROV1 ovarian, in the experiment on SF-295 CNS, with HS 578T breast, with K-562 leukemia and in the experiment on MOLT-4 leukemia was above 10 µM each time. Further, the TGI with SK-MEL-2 melanoma, in the experiment on SF-539 CNS and with SW-620 colon was above 10 µM each time.

For the compound `C1=C(c2ccccc2)C(N2CCOCC2)Oc2ccccc21` (centres undefined), the total growth inhibition concentration (TGI) in the experiment with TK-10 renal, with IGROV1 ovarian, with SF-295 CNS, in the experiment with HS 578T breast, with K-562 leukemia and with MOLT-4 leukemia was above 100 µM in each case. For the same compound, the TGI in the experiment with SF-539 CNS, in the experiment with SW-620 colon and in the experiment with NCI-H522 lung was above 100 µM each time.

With `C=CO/N=[N+](\[O-])N(CC)CC`, the TGI with TK-10 renal, with IGROV1 ovarian, with SF-295 CNS, with HS 578T breast, in the experiment on K-562 leukemia and with MOLT-4 leukemia was above 100 µM each time. Besides, the concentration for total growth inhibition (TGI) in the experiment with SF-539 CNS, in the experiment with SW-620 colon and in the experiment with NCI-H522 lung was above 100 µM throughout.

For the compound `O=C(O)C(Cc1cnc[nH]1)N1C(=O)c2ccccc2C1=O` (centres undefined), the concentration for total growth inhibition (TGI) was above 100 µM in the experiment on TK-10 renal; above 100 µM with IGROV1 ovarian; 98.5 µM with SF-295 CNS; above 100 µM with HS 578T breast; above 100 µM in the experiment with K-562 leukemia; above 100 µM in the experiment with MOLT-4 leukemia. Moreover, the TGI in the experiment with SK-MEL-2 melanoma, in the experiment with SW-620 colon and in the experiment on NCI-H522 lung was above 100 µM each time.

For `CCCCCCCCCCCC1=NC(C)(C)CN1C(C)(C)CO`, the GI50 with TK-10 renal is 1.94 µM; in the experiment on SF-295 CNS it was 2.04 µM; with HS 578T breast, 1.45 µM; with K-562 leukemia, 1.84 µM; in the experiment on MOLT-4 leukemia it was 2.79 µM; in the experiment with SK-MEL-2 melanoma, 2.12 µM. Besides, the GI50 in the experiment with SF-539 CNS is 1.85 µM; in the experiment with SW-620 colon, 1.67 µM; with NCI-H522 lung it was 1.84 µM. Besides, the TGI with TK-10 renal was 3.61 µM; in the experiment on SF-295 CNS, 4.29 µM; in the experiment with HS 578T breast, 3.48 µM; in the experiment on K-562 leukemia, 4.38 µM; in the experiment on MOLT-4 leukemia it was 8.66 µM; with SK-MEL-2 melanoma, 3.88 µM. Further, the total growth inhibition concentration (TGI) is 3.51 µM in the experiment with SF-539 CNS, 3.08 µM in the experiment on SW-620 colon and 4.02 µM in the experiment with NCI-H522 lung.

As for `COC(C)(C)[C@@H](O)[C@H](O)C[C@H](C)C1=C2CC[C@@H]3[C@@]4(C)CC[C@@H](OC(C)=O)C(C)(C)[C@@H]4C[C@@H](OC4OC(COC(C)=O)C(O)C(O)C4O)[C@@]3(C)[C@]2(C)CC1` (some centres undefined), the GI50 is 13.1 µM in the experiment with IGROV1 ovarian; 11.6 µM in the experiment with SF-295 CNS; 11.8 µM in the experiment with HS 578T breast; 6.06 µM in the experiment on K-562 leukemia; 5.07 µM with MOLT-4 leukemia; 13.2 µM with SK-MEL-2 melanoma. For the same compound, the results for the GI50 in the experiment with SW-620 colon and in the experiment with NCI-H522 lung were 15.7 µM and 12.2 µM, respectively. For the same compound, the TGI in the experiment on IGROV1 ovarian was 26.2 µM; in the experiment with SF-295 CNS, 24.1 µM; in the experiment on HS 578T breast it was 28.3 µM; in the experiment with K-562 leukemia, 22.3 µM; in the experiment with MOLT-4 leukemia, 23.9 µM; with SK-MEL-2 melanoma it was 26 µM. For the same compound, the concentration for total growth inhibition (TGI) in the experiment on SW-620 colon was 30.1 µM; with NCI-H522 lung it was 25.2 µM.

Regarding `COc1ccc2c(c1)/C(=C\c1ccncc1)C(=O)N2`, the GI50 in the experiment with TK-10 renal is 15.1 µM; in the experiment on IGROV1 ovarian, 4.15 µM; with SF-295 CNS, 15.7 µM; in the experiment on HS 578T breast it was 27.4 µM; in the experiment on K-562 leukemia it was 3.41 µM; in the experiment on SK-MEL-2 melanoma, 6.12 µM. Moreover, the GI50 in the experiment on SF-539 CNS was 2.98 µM; with SW-620 colon it was 10.4 µM; in the experiment on NCI-H522 lung, 4 µM. Moreover, the total growth inhibition concentration (TGI) in the experiment on TK-10 renal is 30.5 µM; with IGROV1 ovarian, 9.37 µM; with SF-295 CNS, 72.8 µM; in the experiment with HS 578T breast, 82.1 µM; in the experiment with K-562 leukemia, 9.56 µM; with SK-MEL-2 melanoma, 23.6 µM. In addition, the TGI with SF-539 CNS was 11.4 µM; with SW-620 colon, 43.8 µM; in the experiment with NCI-H522 lung, 9.18 µM.

Consider `CCC1(O)CC(OC2CC(N(C)C)C(OC3CC(O)C(OC4OC(C)C(=O)C=C4N)C(C)O3)C(C)O2)c2c(cc3c(c2O)C(=O)c2c(O)cccc2C3=O)C1C(=O)OC` (centres undefined), for which the GI50 in the experiment with TK-10 renal is 0.0398 µM; with HS 578T breast, 0.0579 µM. Besides, the concentration for total growth inhibition (TGI) in the experiment on TK-10 renal is 1.1 µM and 2.31 µM; with SF-295 CNS, 1.53 µM and 1.13 µM; with HS 578T breast it was 0.594 µM and 4.1 µM; in the experiment on K-562 leukemia, 0.262 µM and 1.73 µM; in the experiment on SK-MEL-2 melanoma it was 0.104 µM and 0.0118 µM; with SF-539 CNS it was 0.502 µM and 1.4 µM. The total growth inhibition concentration (TGI) with SW-620 colon was 1.76 µM and 1.2 µM; with NCI-H522 lung it was 0.319 µM.

Regarding `Cc1ccc(/C=C(\C#N)c2cc3ccccc3n2C)cc1`, the GI50 is above 100 µM with TK-10 renal; 0.544 µM with IGROV1 ovarian; 0.285 µM in the experiment on SF-295 CNS; 0.448 µM with HS 578T breast; 0.153 µM with K-562 leukemia; 0.467 µM in the experiment with MOLT-4 leukemia. Further, the figures for the GI50 with SF-539 CNS, with SW-620 colon and in the experiment on NCI-H522 lung were 0.294 µM, 0.361 µM and 0.269 µM, respectively. Moreover, the TGI with TK-10 renal is above 100 µM; in the experiment on IGROV1 ovarian, above 100 µM; with SF-295 CNS it was 1.46 µM; in the experiment on HS 578T breast, above 100 µM; in the experiment on K-562 leukemia it was above 100 µM; in the experiment with MOLT-4 leukemia, above 100 µM. Further, the TGI is 1.02 µM with SF-539 CNS, above 100 µM in the experiment with SW-620 colon and 16.2 µM in the experiment with NCI-H522 lung.
